Patent EP1247803A2, “Indolinone compounds suitable for modulation of protein kinases” (Sugen, Inc., priority 1996, dated 1998)

Assays:
[1] = target: PDGF-R (Homo sapiens, UniProt P09619); test: PDGF-R ELISA; type: cell-based
From the text: A PDGF-R ELISA is described in International Patent Publication No. WO 96/40116, published December 19, 1996 by Tang et al.

[2] = target: T1, EGFR (Homo sapiens, UniProt P00533); test: EGFR ELISA assay (in vitro kinase activity, EGFR captured from A431 cell lysate); type: biochemical; set-up: concentration or dose not given beside the values
T1 construct: Add 7 ug A431 cell lysate per well (EGFR source); endogenous in cells; host or cells: A431
T1 sequence (P00533 25-1210): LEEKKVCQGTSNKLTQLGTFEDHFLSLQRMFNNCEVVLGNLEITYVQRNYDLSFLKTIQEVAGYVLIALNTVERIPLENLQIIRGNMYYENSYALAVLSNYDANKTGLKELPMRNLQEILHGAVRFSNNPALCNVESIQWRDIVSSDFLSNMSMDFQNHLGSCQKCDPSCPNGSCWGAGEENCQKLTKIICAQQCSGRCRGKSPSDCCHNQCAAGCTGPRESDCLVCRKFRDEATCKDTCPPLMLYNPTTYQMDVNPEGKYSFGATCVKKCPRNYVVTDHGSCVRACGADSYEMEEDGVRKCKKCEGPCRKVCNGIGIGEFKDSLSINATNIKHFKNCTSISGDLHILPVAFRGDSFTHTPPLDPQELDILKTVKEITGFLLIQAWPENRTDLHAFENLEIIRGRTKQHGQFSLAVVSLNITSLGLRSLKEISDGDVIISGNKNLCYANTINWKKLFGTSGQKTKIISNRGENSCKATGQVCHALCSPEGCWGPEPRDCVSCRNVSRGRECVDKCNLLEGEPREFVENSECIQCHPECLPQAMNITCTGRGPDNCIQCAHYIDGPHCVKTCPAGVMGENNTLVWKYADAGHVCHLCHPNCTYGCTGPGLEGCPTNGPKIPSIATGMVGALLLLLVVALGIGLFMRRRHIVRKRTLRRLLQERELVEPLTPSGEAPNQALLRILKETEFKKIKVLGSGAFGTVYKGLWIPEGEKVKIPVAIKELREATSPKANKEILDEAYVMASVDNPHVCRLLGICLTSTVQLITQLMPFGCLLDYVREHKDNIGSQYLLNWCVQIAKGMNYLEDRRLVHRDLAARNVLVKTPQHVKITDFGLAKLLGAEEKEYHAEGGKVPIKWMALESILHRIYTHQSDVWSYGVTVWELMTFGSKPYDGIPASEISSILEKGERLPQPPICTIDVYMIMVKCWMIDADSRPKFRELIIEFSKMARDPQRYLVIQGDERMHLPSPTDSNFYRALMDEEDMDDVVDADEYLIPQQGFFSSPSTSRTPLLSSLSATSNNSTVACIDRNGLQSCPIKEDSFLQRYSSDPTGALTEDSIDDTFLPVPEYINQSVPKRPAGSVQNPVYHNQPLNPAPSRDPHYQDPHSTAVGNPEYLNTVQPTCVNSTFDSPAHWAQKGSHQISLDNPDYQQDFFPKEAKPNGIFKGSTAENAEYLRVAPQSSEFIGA
Outline: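 EGFR from A431 lysate was captured on plates coated with anti-EGFR antibody. Compounds were added 30 min before a 5 min phosphorylation with 3 µM ATP/5 mM MnCl2, which was stopped with 20 mM EDTA. Phosphotyrosine was detected with rabbit anti-phosphotyrosine, then a peroxidase-conjugated secondary and ABTS/H2O2, read at 410 nm.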

[3] = system: MET; test: MET biochemical kinase assay; set-up: species or system human; concentration or dose not given beside the values
Outline: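 In this format, tyrosine phosphorylation of plate-captured human MET is followed in vitro after compound addition in ATP/divalent-cation buffer, detected by anti-phosphotyrosine-HRP with TMB substrate.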

PDGF-R, sequence (P09619 33-1106, species assumed): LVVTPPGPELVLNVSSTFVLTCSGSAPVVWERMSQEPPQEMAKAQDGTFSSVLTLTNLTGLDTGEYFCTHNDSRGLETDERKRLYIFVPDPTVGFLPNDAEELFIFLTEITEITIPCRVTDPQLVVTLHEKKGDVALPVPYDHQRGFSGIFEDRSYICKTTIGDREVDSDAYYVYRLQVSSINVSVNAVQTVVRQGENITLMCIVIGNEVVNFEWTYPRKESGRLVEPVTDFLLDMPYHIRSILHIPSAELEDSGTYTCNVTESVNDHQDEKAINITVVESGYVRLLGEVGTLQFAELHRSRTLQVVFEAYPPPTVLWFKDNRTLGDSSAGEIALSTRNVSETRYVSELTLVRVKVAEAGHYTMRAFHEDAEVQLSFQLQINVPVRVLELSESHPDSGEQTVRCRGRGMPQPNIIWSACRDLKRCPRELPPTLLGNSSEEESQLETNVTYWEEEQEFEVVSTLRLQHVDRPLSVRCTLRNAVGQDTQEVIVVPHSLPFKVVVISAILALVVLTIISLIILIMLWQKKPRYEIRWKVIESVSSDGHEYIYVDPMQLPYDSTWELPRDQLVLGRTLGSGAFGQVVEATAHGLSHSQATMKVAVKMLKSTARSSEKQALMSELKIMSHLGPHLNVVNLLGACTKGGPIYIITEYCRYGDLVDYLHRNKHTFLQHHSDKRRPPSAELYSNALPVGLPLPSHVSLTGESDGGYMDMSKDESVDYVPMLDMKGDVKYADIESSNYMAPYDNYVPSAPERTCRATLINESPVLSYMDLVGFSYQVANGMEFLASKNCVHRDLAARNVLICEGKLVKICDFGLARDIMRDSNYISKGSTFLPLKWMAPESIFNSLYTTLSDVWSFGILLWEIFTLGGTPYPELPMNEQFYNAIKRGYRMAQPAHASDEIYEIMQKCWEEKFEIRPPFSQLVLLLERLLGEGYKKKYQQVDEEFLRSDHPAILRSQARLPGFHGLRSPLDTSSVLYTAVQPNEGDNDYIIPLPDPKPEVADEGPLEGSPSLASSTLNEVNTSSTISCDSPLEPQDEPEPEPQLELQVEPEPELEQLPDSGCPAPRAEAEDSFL

Compound	PDGF Kinase %Inhibition [1] [%]	Biochem EGFR %Inhibition [2] [%]	Met Kinase % Inhibition [3] [%]
Cc1cc(C=C2C(=O)Nc3ccc(S(=O)(=O)Nc4ccc(C(F)(F)F)cc4)cc32)oc1C [10730/E11]	31.7	19.1	77.2
COc1ccc(C=C2C(=O)Nc3ccc(S(=O)(=O)N4CCOCC4)cc32)c(OC)c1OC [10730/F02]	20.3	2.9	-6.2
COc1cc(OC)c(OC)cc1C=C1C(=O)Nc2ccc(S(=O)(=O)N3CCOCC3)cc21 [10730/F03]	1.5	10.4	-0.6
COc1cc(C=C2C(=O)Nc3ccc(S(=O)(=O)N4CCOCC4)cc32)cc(OC)c1OC [10730/F04]	28.7	-4.8	36.0
CC(=O)n1cc(C=C2C(=O)Nc3ccc(S(=O)(=O)N4CCOCC4)cc32)c2ccccc21 [10730/F05]	19.5	-16.3	23.5
O=C1Nc2ccc(S(=O)(=O)N3CCOCC3)cc2C1=Cc1coc2ccc(Cl)cc2c1=O [10730/F06]	3.2	-0.6	56.5
O=C1Nc2ccc(S(=O)(=O)N3CCOCC3)cc2C1=Cc1ccc(-c2ccccc2Cl)o1 [10730/F07]	-2.0	27.3	60.7
O=C1Nc2ccc(S(=O)(=O)N3CCOCC3)cc2C1=Cc1cc2ccccc2nc1Cl [10730/F08]	-0.3	0.8	46.4
